Reference: the NIST ThermoML archive (doi:10.1016/j.fluid.2012.08.002)

Experiment: xn = mol fraction of the nth substance listed
Conditions: 101 kPa, Liquid; for speed of sound: Sing-around technique in a fixed-path interferometer; for mass density: Vibrating tube method

CCCCCCn1cc[n+](C)c1.F[B-](F)(F)F [1-hexyl-3-methylimidazolium tetrafluoroborate] + COCCO
Conditions	mass density [kg/m3]	speed of sound [m/s]
288.15 K, x1 = 0.053	996.474	1409.6
288.15 K, x1 = 0.1088	1021	1431.9
288.15 K, x1 = 0.2016	1052.83	1457.6
288.15 K, x1 = 0.3088	1077.88	1478.5
288.15 K, x1 = 0.4106	1093.47	1491.7
288.15 K, x1 = 0.5023	1103.61	1503.4
288.15 K, x1 = 0.5962	1112.5	1512.3
288.15 K, x1 = 0.7006	1122.49	1520
288.15 K, x1 = 0.7995	1132.99	1529.1
288.15 K, x1 = 0.9099	1145.62	1540
293.15 K, x1 = 0.053	991.791	1392.4
293.15 K, x1 = 0.1088	1016.45	1415.8
293.15 K, x1 = 0.2016	1048.37	1442.3
293.15 K, x1 = 0.3088	1073.64	1463.8
293.15 K, x1 = 0.4106	1089.74	1477.6
293.15 K, x1 = 0.5023	1100.22	1490.1
293.15 K, x1 = 0.5962	1109.27	1499.5
293.15 K, x1 = 0.7006	1119.44	1508.2
293.15 K, x1 = 0.7995	1130.02	1518.1
293.15 K, x1 = 0.9099	1142.38	1527.2
298.15 K, x1 = 0.053	987.817	1375.8
298.15 K, x1 = 0.1088	1012.38	1399.8
298.15 K, x1 = 0.2016	1044.22	1427.1
298.15 K, x1 = 0.3088	1069.47	1449.5
298.15 K, x1 = 0.4106	1085.86	1463.8
298.15 K, x1 = 0.5023	1096.66	1476.9
298.15 K, x1 = 0.5962	1106.01	1487.1
298.15 K, x1 = 0.7006	1116.37	1496.5
298.15 K, x1 = 0.7995	1126.8	1505.8
298.15 K, x1 = 0.9099	1138.92	1514.7
303.15 K, x1 = 0.053	983.383	1359.3
303.15 K, x1 = 0.1088	1008.21	1384
303.15 K, x1 = 0.2016	1040.16	1411.9
303.15 K, x1 = 0.3088	1065.51	1435.5
303.15 K, x1 = 0.4106	1081.93	1450.1
303.15 K, x1 = 0.5023	1092.85	1463.9
303.15 K, x1 = 0.5962	1102.49	1474.7
303.15 K, x1 = 0.7006	1113.08	1484.5
303.15 K, x1 = 0.7995	1123.59	1493.6
303.15 K, x1 = 0.9099	1135.86	1502.4
308.15 K, x1 = 0.053	979.101	1342.8
308.15 K, x1 = 0.1088	1004.1	1368.2
308.15 K, x1 = 0.2016	1036.07	1397
308.15 K, x1 = 0.3088	1061.47	1421.5
308.15 K, x1 = 0.4106	1077.94	1436.9
308.15 K, x1 = 0.5023	1089.12	1451
308.15 K, x1 = 0.5962	1098.81	1462.2
308.15 K, x1 = 0.7006	1109.56	1472.2
308.15 K, x1 = 0.7995	1120.09	1481.5
308.15 K, x1 = 0.9099	1132.31	1490.3
313.15 K, x1 = 0.053	974.997	1326.5
313.15 K, x1 = 0.1088	999.809	1352.3
313.15 K, x1 = 0.2016	1031.82	1382.1
313.15 K, x1 = 0.3088	1057.43	1407.4
313.15 K, x1 = 0.4106	1073.99	1424.1
313.15 K, x1 = 0.5023	1085.32	1438.4
313.15 K, x1 = 0.5962	1095.09	1449.7
313.15 K, x1 = 0.7006	1105.89	1460.1
313.15 K, x1 = 0.7995	1116.48	1469.5
313.15 K, x1 = 0.9099	1128.74	1478.5
318.15 K, x1 = 0.053	970.346	1309.8
318.15 K, x1 = 0.1088	995.598	1336.2
318.15 K, x1 = 0.2016	1027.87	1367.3
318.15 K, x1 = 0.3088	1053.41	1393.3
318.15 K, x1 = 0.4106	1070.02	1411.6
318.15 K, x1 = 0.5023	1080.99	1425.6
318.15 K, x1 = 0.5962	1090.77	1437.4
318.15 K, x1 = 0.7006	1101.5	1448.2
318.15 K, x1 = 0.7995	1112.28	1457.7
318.15 K, x1 = 0.9099	1124.84	1466.9

CCCCCCn1cc[n+](C)c1.[Br-] [3-hexyl-1-methyl-1H-imidazolium bromide] + COCCO
Conditions	mass density [kg/m3]	speed of sound [m/s]
288.15 K, x1 = 0.0541	1003.16	1406.2
288.15 K, x1 = 0.1114	1033.95	1427.1
288.15 K, x1 = 0.2063	1075.85	1455
288.15 K, x1 = 0.3163	1113.65	1481.2
288.15 K, x1 = 0.399	1136.61	1498.5
288.15 K, x1 = 0.5066	1160.88	1518.9
288.15 K, x1 = 0.5919	1177.15	1532.1
288.15 K, x1 = 0.7003	1194.68	1550.1
288.15 K, x1 = 0.8193	1210.88	1578.5
288.15 K, x1 = 0.905	1221.01	1610.1
293.15 K, x1 = 0.0541	998.827	1389.9
293.15 K, x1 = 0.1114	1029.8	1411.5
293.15 K, x1 = 0.2063	1071.89	1440.2
293.15 K, x1 = 0.3163	1109.92	1467.3
293.15 K, x1 = 0.399	1132.93	1485.4
293.15 K, x1 = 0.5066	1157.28	1506
293.15 K, x1 = 0.5919	1173.58	1519.1
293.15 K, x1 = 0.7003	1191.1	1535.7
293.15 K, x1 = 0.8193	1207.23	1560
293.15 K, x1 = 0.905	1217.37	1584.7
298.15 K, x1 = 0.0541	994.442	1373.6
298.15 K, x1 = 0.1114	1025.66	1395.9
298.15 K, x1 = 0.2063	1067.99	1425.3
298.15 K, x1 = 0.3163	1106.17	1454
298.15 K, x1 = 0.399	1129.03	1472.5
298.15 K, x1 = 0.5066	1153.7	1493.4
298.15 K, x1 = 0.5919	1169.99	1506.4
298.15 K, x1 = 0.7003	1187.69	1521.9
298.15 K, x1 = 0.8193	1203.66	1543.4
298.15 K, x1 = 0.905	1213.6	1563.8
303.15 K, x1 = 0.0541	990.104	1357.4
303.15 K, x1 = 0.1114	1021.6	1380.5
303.15 K, x1 = 0.2063	1064.1	1410.7
303.15 K, x1 = 0.3163	1102.4	1440.7
303.15 K, x1 = 0.399	1125.44	1459.6
303.15 K, x1 = 0.5066	1150.12	1481
303.15 K, x1 = 0.5919	1166.5	1494.1
303.15 K, x1 = 0.7003	1184.24	1509.1
303.15 K, x1 = 0.8193	1200.22	1528.5
303.15 K, x1 = 0.905	1210.1	1545.7
308.15 K, x1 = 0.0541	985.747	1341.1
308.15 K, x1 = 0.1114	1017.43	1365.1
308.15 K, x1 = 0.2063	1060.19	1396.3
308.15 K, x1 = 0.3163	1098.64	1427.5
308.15 K, x1 = 0.399	1121.85	1446.7
308.15 K, x1 = 0.5066	1146.54	1468.7
308.15 K, x1 = 0.5919	1162.92	1482
308.15 K, x1 = 0.7003	1180.7	1496.7
308.15 K, x1 = 0.8193	1196.79	1514.7
308.15 K, x1 = 0.905	1206.71	1529.7
313.15 K, x1 = 0.0541	981.397	1324.9
313.15 K, x1 = 0.1114	1013.1	1349.9
313.15 K, x1 = 0.2063	1056.1	1382.4
313.15 K, x1 = 0.3163	1094.88	1414.3
313.15 K, x1 = 0.399	1118.18	1433.9
313.15 K, x1 = 0.5066	1142.96	1456.5
313.15 K, x1 = 0.5919	1159.44	1470.3
313.15 K, x1 = 0.7003	1177.16	1484.8
313.15 K, x1 = 0.8193	1193.35	1501.8
313.15 K, x1 = 0.905	1203.34	1515.2
318.15 K, x1 = 0.0541	976.988	1308.7
318.15 K, x1 = 0.1114	1009.12	1335.8
318.15 K, x1 = 0.2063	1052.25	1369.4
318.15 K, x1 = 0.3163	1091.12	1401.5
318.15 K, x1 = 0.399	1114.51	1421.1
318.15 K, x1 = 0.5066	1139.37	1444.5
318.15 K, x1 = 0.5919	1155.95	1458.7
318.15 K, x1 = 0.7003	1173.69	1473.2
318.15 K, x1 = 0.8193	1189.89	1489.7
318.15 K, x1 = 0.905	1199.95	1501.9
